Laboratory results reported in BindingDB's records for doi:10.1021/jm201702g (Ambit Biosciences, 2012).

Test: Inhibition of Aurora kinase B in human HCT116 cells assessed as induction of 8N polyploidy

| EC50 | SMILES |
| --- | --- |
| 3 nM | Cc1cc(Nc2nc(Sc3ccc(NC(=O)CN4CC[C@@H](C(=O)NC5CCCC5)C4)cc3)nn3cccc23)n[nH]1 |
| 3 nM | Cc1cc(Nc2nc(Sc3ccc(NC(=O)CN4CC[C@@H](C(=O)N5CCC(F)(F)C5)C4)cc3)nn3cccc23)n[nH]1 |
